Entries after “also recorded” stand apart in the source; their conditions may differ.
Tests used:
[1] = molecular target: T1, hPTP1B1–400 (Homo sapiens, UniProt P18031); assay: PTP1B activity assay, long form hPTP1B1–400 (p‐NPP); type: biochemical; design: hPTP1B1–400 (the long form with an intrinsically disordered C‐terminal regulatory domain); settings: ± S.D; p‐NPP substrate, 15 min at 37 °C, triplicate
T1 sequence (P18031 1-400): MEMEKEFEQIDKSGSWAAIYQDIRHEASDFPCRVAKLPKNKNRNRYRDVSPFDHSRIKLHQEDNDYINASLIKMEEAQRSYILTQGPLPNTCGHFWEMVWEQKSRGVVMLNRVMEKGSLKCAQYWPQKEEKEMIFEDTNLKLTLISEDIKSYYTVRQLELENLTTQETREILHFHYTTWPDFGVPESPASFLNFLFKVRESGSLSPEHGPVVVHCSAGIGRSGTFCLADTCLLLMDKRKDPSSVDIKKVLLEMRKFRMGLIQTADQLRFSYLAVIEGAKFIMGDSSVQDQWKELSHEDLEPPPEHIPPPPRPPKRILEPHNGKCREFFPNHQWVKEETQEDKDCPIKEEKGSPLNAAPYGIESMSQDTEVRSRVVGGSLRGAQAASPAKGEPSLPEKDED
Protocol: The inhibitory activity of PTP1B was assessed using two enzyme variants: hPTP1B1–285 (the short form with an N‐terminal catalytic domain) and hPTP1B1–400 (the long form with an intrinsically disordered C‐terminal regulatory domain). […] According to Coronel‐Tovar et al., the disordered region of the C‐terminal domain plays a crucial role in modulating PTP1B enzymatic activity.^[ [30] ^] […] Different concentrations of the compounds were evaluated to determine their IC50 values (Table 1 ).
Recombinant human protein tyrosine phosphatase 1B, consisting of 400 and 285 amino acid residues, was used.^[ [35] ^] […] Aliquots of 0–10 µL of the test compounds (triplicate) were taken and incubated for 15 min at 37 °C with 85 µL of Tris buffer solution (50 mM, pH 6.8) containing PTP1B enzyme and 5 µL of p‐nitrophenyl phosphate substrate (p‐NPP, 10 mM). Absorbance was then measured at a wavelength of 405 nm. The inhibitory activity was determined according to Equation (1). (1) % PTP1B=(A405b/A405c)×100 where % PTP1B: Is the percentage of inhibition. A 405c: Is the corrected absorbance of the blank (A 405initial–A 405final). A 405b: Is the corrected absorbance of the compounds (A 405control–A 405compound).

[2] = molecular target: T1, hPTP1B1–400; assay: Kinetic studies of PTP1B (hPTP1B1–400);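 note: enzyme kinetics run across a range of substrate and inhibitor levels, control lacking inhibitor, triplicate runs, parameters derived by fitting Michaelis–Menten style equations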
Protocol: Kinetic analyses were performed at various substrate and inhibitor concentrations.
The negative control was prepared with the enzyme and substrate in the absence of the inhibitor. Experiments were conducted in triplicate.^[ [30] ^] […] The kinetic parameters of enzyme inhibition, K m and V max, were determined by fitting the data to the Michaelis‐Menten model, Equation (3) (OriginPro 2018 (64‐bit) SR1). (3) y=VmaxX/Km+X´ where V max: is the maximum velocity, X: is the inhibitor concentration, K m: Michaelis constant.
(4) y=Vmax(X)/(Km/1+I/Ki)+X where V max: maximum velocity, X: substrate concentration, I: inhibitor concentration, K m: Michaelis constant, K i : inhibition constant.

[3] = test system: insulin‐resistant HepG2 cells; assay: Insulin‐resistant HepG2 model, western blotting of PTP1B and pAKT; type: cell-based; settings: 24 h, western blot
Protocol: Subsequently, we evaluated the same compounds in a HepG2 insulin‐resistant model.
Bar graphs represent the mean ± SEM of normalized values. The control levels were set at 1. T‐test significance *p < 0.05, when compared with control (DMSO). Statistical analyses were carried out using GraphPad Prism 8.0.
For the resistant insulin model using HepG2 cells, the following reagents were acquired from Sigma–Aldrich (Toluca, MEX, Mexico, and St. Louis, MO, USA): Insulin (I2643), Dulbecco's modified eagle's medium (DMEM) low glucose media (D5523), Trypsin‐EDTA solution (T4174), antibiotic‐antimycotic solution(A5955), dimethyl sulfoxide (DMSO‐D8418), sodium deoxycholate (D6750), triethylammonium bicarbonate buffer 1 M (TEAB‐T7408), glutaraldehyde 25% (G6275), acetic acid (695092), and crystal violet (C0775). The bicinchoninic acid protein quantitation kit (23225) and the Halt Cocktail with protease and phosphatase inhibitors (1861281) were acquired from ThermoFisherScientific. Fetal bovine serum (26140–079) was from Gibco. The chemiluminescent solution (170–5061) was acquired from Biorad. Rabbit anti‐PTP1B (5311S) and mouse anti‐β actin (3700S) primary antibodies were obtained from Cell Signaling, and secondary antibodies coupled with horseradish peroxidase were from Jackson laboratories (rabbit‐111−035, mouse‐115–035).
Treated cells with compounds were washed twice with 1 mL of PBS, and protein was extracted using 500 µL of a buffer solution containing 10% sodium deoxycholate in 10% TEAB, supplemented with a protease and phosphatase inhibitor cocktail. The extracts were heated to 80 °C for 5 min and disaggregated through passages with an insulin syringe. The cell extracts were centrifuged at 15,000 rpm for 15 min at 4 °C, and the supernatant was collected. Protein quantification was performed using the bicinchoninic acid assay method, and aliquots were prepared for western blotting. SDS/PAGE was conducted, and proteins were transferred onto a nitrocellulose membrane. The membrane was then blocked with 10% skimmed milk in TBST for 1 h and incubated overnight with primary antibodies (1:400 dilution). Secondary antibodies coupled to horseradish peroxidase were diluted 1:2000, and membranes were incubated for 1 h. The blots were documented using the ChemiDoc MP (Bio‐Rad), and densitometric analysis was performed using ImageJ (U.S. National Institutes of Health). Statistical analyses were carried out using GraphPad Prism 8.0.

[4] = molecular target: T2, TCPTP (Homo sapiens, UniProt P17706); assay: T‐cell protein tyrosine phosphatase (TCPTP) activity assay (p‐NPP); type: biochemical; settings: ± S.D; assessed up to 100 μM; read-out: TCPTP IC50
T2 sequence (P17706 1-415): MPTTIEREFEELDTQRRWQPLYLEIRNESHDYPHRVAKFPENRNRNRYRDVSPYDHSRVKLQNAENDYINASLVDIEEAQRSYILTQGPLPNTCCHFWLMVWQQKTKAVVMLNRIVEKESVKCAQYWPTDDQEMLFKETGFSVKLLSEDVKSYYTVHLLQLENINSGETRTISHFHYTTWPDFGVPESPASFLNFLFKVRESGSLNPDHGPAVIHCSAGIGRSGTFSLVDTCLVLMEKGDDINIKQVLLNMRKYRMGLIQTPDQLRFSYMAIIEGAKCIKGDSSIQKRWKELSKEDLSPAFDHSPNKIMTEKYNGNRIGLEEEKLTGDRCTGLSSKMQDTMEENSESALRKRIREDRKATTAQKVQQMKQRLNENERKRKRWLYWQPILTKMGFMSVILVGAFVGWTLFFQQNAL
Protocol: The effectiveness and safety of protein tyrosine phosphatase (PTP) inhibitors depend on their specificity. PTP1B and TCPTP serve different functions: PTP1B is involved in metabolism and cancer, while TCPTP regulates immune function. Inhibiting TCPTP could impact the immune response, whereas inhibiting PTP1B may benefit metabolic diseases without these side effects.^[ [20] ^, [34] ^, [35] ^] […] These compounds were assessed up to 100 μM (Table 1).
TCPTP enzyme reported by Mendoza et al. was used for this assay. […] Aliquots of 0–10 µL (triplicate) of the newly synthesized compounds, positive control, and solvent were taken. These were incubated with 85 µL of enzyme solution (Tris, 50 mM, pH 6.8, TCPTP) and 5 µL of substrate (p‐NPP, 10 mM) for 15 min at 37 °C.

[5] = ± S.D, hPTP1B1–400 with inhibitor

Structure (SMILES): CC1(C(=O)O)CCC2(C)CCC3(C)C(=CC(=O)C4C5(C)Cc6c([nH]c7ccc(C(F)(F)F)cc67)C(C)(C)C5CCC43C)C2C1 (stereo not shown) [Compound 3c]
- IC50 [1]: 2060 ± 80 nM
- Ki ([2]; K i, ± S.D, hPTP1B1–400, p‐NPP 0.1 to 0.5 mM): 71 ± 8 nM
- Inhibition type ([2]; hPTP1B1–400): uncompetitive inhibition
- K m [2, 5]: 520 ± 70 µM
- V max [2, 5]: 0.62 ± 0.05 mM/min
- AKT phosphorylation (pAKT) levels [3]: slight increase; also recorded: slightly increased pAKT levels
- IC50 [4]: > 100000 nM

— paper PMC12640663 (Chemmedchem, 2025)
